How the values were obtained:
[1] = biological target: EGFR (human), P00533 [L858R]; assay: Enzyme Assay
[2] = biological target: EGFR (Human), P00533 [T790M/L858R]; assay: Enzyme Assay
[3] = biological target: EGFR (human), P00533 [WT]
Sequence of EGFR (human), P00533 [WT] (P00533 whole entry, looked up): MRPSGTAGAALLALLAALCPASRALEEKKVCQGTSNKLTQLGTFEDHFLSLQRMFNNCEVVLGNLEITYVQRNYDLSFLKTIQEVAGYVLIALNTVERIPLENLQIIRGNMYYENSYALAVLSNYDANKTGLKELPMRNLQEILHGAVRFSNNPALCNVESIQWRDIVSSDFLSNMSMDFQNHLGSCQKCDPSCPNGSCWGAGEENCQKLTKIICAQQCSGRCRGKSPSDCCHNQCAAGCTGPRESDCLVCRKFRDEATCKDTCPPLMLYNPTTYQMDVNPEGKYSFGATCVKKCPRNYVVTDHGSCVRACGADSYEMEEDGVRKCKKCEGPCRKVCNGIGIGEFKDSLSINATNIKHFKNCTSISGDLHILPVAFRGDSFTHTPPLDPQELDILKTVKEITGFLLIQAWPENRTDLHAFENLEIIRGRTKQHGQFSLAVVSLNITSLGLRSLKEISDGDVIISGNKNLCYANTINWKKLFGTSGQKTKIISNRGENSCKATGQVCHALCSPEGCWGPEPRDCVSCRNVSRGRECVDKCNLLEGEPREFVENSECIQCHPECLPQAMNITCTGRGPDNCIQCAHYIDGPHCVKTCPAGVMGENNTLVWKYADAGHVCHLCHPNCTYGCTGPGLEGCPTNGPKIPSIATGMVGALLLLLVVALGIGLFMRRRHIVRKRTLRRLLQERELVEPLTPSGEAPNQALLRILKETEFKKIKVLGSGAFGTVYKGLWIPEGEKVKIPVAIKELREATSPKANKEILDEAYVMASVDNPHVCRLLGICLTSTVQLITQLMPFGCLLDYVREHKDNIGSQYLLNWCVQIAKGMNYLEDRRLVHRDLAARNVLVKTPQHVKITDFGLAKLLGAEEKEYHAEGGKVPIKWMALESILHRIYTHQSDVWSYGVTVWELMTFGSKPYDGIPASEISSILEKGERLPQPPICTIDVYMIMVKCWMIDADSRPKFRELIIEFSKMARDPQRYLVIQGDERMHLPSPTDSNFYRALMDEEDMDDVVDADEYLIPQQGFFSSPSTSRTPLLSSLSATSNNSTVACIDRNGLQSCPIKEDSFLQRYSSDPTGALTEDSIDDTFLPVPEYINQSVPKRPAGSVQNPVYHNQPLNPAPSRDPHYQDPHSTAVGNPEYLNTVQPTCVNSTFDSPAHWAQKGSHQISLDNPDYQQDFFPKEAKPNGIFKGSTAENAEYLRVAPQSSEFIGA

Sequence of EGFR (Human), P00533 [T790M/L858R] (P00533 whole entry T790M/L858R, looked up): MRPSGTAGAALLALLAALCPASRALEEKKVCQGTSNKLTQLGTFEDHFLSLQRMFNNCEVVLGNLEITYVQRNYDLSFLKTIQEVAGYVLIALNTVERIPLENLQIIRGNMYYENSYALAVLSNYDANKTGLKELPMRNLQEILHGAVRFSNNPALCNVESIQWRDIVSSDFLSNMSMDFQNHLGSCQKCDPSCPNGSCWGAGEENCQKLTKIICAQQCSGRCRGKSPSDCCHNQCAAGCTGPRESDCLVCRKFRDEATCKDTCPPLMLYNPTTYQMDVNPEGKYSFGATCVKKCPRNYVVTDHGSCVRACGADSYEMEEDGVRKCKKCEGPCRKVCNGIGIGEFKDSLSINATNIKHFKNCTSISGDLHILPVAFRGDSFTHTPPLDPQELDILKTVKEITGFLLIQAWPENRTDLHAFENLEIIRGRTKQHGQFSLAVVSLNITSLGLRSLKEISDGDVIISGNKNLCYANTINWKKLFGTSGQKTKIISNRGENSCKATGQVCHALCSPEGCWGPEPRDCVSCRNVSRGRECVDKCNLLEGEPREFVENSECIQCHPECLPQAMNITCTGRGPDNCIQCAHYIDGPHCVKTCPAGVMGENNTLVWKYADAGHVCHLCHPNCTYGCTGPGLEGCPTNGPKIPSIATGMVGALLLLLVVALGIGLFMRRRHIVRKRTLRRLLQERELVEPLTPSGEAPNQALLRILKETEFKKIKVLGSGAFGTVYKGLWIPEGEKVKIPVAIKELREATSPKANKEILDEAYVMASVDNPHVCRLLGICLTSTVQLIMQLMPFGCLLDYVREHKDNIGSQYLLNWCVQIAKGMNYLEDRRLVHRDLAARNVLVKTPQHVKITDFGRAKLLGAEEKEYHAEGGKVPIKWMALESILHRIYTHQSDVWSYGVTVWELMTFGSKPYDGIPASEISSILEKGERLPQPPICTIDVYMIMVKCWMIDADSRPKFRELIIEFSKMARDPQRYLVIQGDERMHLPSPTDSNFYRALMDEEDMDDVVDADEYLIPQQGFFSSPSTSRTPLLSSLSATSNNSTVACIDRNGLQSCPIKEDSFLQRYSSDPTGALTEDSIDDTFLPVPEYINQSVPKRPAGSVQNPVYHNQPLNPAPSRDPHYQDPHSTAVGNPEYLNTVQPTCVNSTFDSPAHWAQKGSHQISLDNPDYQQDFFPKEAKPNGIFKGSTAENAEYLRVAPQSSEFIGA
Sequence of EGFR (human), P00533 [L858R] (P00533 whole entry L858R, looked up): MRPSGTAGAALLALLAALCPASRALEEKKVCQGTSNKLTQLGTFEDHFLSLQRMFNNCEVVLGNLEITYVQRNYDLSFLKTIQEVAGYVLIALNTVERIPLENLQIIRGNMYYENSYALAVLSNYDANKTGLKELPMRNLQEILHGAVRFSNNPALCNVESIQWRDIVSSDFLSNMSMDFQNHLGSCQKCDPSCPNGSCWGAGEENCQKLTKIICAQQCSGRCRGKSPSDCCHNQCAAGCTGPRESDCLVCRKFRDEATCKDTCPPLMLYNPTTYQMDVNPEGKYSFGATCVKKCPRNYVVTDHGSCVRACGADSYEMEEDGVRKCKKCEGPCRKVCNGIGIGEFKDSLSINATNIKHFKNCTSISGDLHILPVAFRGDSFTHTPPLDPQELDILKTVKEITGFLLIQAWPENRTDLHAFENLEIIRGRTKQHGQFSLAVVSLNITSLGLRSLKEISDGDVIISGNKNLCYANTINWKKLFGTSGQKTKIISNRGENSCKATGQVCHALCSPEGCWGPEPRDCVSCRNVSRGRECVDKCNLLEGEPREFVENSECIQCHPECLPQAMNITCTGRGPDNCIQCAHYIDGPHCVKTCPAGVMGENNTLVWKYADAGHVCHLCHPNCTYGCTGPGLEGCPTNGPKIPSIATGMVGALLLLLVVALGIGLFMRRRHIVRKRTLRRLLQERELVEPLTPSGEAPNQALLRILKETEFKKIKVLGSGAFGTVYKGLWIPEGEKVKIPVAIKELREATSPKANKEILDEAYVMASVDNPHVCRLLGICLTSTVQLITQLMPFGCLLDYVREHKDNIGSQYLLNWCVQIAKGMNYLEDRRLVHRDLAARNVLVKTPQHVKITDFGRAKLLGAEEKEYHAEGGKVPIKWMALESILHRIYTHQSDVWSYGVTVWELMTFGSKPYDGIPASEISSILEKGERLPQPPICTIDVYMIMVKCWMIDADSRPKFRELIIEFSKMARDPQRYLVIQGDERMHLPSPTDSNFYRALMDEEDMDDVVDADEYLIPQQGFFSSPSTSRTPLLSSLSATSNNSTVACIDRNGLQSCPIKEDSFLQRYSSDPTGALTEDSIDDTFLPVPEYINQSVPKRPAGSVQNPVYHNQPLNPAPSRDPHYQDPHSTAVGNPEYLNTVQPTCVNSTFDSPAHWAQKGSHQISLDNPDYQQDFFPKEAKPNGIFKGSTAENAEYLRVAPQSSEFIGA

Row | SMILES | IC50 [1] [nM] | IC50 [2] [nM] | IC50 [3] [nM]
1 | CN1CCN(CCOc2ccc(C(=O)N[C@@H]3[C@H]4Oc5ccc(Oc6ccnc7c6CCC(=O)N7)cc5[C@@H]34)cc2C(F)(F)F)CC1 | 12 | 32 | –
2 | Cc1cc(C(=O)N[C@@H]2[C@H]3Oc4ccc(Oc5ccnc6c5CCC(=O)N6)cc4[C@@H]23)ccc1CN1CCN(C)CC1 | 0.5 | 3.1 | 1.5
3 | CN(C)[C@H]1CCN(Cc2ccc(C(=O)N[C@@H]3[C@H]4Oc5ccc(Oc6ccnc7c6CCC(=O)N7)cc5[C@@H]34)cc2C(F)(F)F)C1 | 0.3 | 0.3 | –
4 | O=C1CCc2c(Oc3ccc4c(c3)[C@H]3[C@H](NC(=O)c5ccc(CN6CCN(CCO)CC6)c(C(F)(F)F)c5)[C@H]3O4)ccnc2N1 | 0.26 | 0.76 | –
5 | CCCCCCCCCCCC(=O)N[C@@H]1[C@H]2Oc3ccc(Oc4ccnc5c4CCC(=O)N5)cc3[C@@H]12 | – | – | 8.9
6 | CN1CCN(Cc2ccc(C(=O)N[C@@H]3[C@H]4Oc5ccc(Oc6ccnc7c6COC(=O)N7)cc5[C@@H]34)cc2C(F)(F)F)CC1 | 0.29 | 0.49 | –
7 | CN(C)C1CCN(Cc2ccc(C(=O)N[C@@H]3[C@H]4Oc5ccc(Oc6ccnc7c6CCC(=O)N7)cc5[C@@H]34)cc2C(F)(F)F)CC1 | 0.27 | 0.42 | –
8 | O=C(C=Cc1cccc(C(F)(F)F)c1)N[C@@H]1[C@H]2Oc3ccc(Oc4ccnc5c4CCC(=O)N5)cc3[C@@H]12 | 68 | 1140 | –
9 | CN(C)[C@@H]1CCN(Cc2ccc(C(=O)N[C@@H]3[C@H]4Oc5ccc(Oc6ccnc7c6CCC(=O)N7)cc5[C@@H]34)cc2C(F)(F)F)C1 | 0.67 | 3.1 | –
